Source: ChEMBL document CHEMBL2034824, “Pyridyl-2,5-diketopiperazines as potent, selective, and orally bioavailable oxytocin antagonists: synthesis, pharmacokinetics, and in vivo potency” (J Med Chem, 2012)

Columns and labels:
[1] = molecular target: serum albumin (Homo sapiens, UniProt P02768); assay: Binding affinity to human serum albumin; type: ADME; details: read-out: PB (converted)
[2] = molecular target: T1, Oxytocin receptor (Homo sapiens, UniProt P30559); assay: Displacement of [3H]oxytocin from human oxytocin receptor
T1 sequence (P30559 whole entry): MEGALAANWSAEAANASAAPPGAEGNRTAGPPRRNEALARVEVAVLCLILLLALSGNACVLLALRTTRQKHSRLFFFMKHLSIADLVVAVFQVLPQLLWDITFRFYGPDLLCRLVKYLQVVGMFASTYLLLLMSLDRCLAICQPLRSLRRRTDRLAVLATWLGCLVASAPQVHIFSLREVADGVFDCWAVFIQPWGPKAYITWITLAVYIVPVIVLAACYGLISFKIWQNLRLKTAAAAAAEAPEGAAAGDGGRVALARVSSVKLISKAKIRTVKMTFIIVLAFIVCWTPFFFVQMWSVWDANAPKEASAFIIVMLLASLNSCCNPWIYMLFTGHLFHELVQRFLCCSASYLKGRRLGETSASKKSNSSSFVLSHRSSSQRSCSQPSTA

[3] = Clearance in rat at 5 mg/kg; type: ADME, organism-based; parameters: dose 5 mg/kg; details: in vivo
[4] = system: Liver; assay: Intrinsic clearance in dog liver microsomes; type: ADME, Canis lupus familiaris, Microsome
[5] = Intrinsic clearance in cynomolgus monkey liver microsomes; type: ADME, Macaca fascicularis, Microsome
[6] = Oral bioavailability in dog at 0.6 mg/kg; type: ADME, organism-based, Canis lupus familiaris; details: in vivo
[7] = Clearance in dog at 0.6 mg/kg; type: ADME, organism-based, Canis lupus familiaris; parameters: dose 0.6 mg/kg; details: in vivo
[8] = Lipophilicity, log D of the compound by HPLC analysis; type: physicochemical
[9] = AUC in rat at 5 mg/kg, po; type: ADME, organism-based; parameters: dose 5 mg/kg, route oral; details: plasma
[10] = AUC in dog at 0.6 mg/kg, po; type: ADME, organism-based, Canis lupus familiaris; parameters: dose 0.6 mg/kg, route oral; details: plasma
[11] = Aqueous solubility of the compound by HPLC analysis; type: physicochemical
[12] = molecular target: serum albumin (Rattus norvegicus, UniProt P02770); assay: Binding affinity to rat serum albumin; type: ADME; details: read-out: PB (converted)
Chain of serum albumin (Rattus norvegicus, UniProt P02770) (P02770 whole entry): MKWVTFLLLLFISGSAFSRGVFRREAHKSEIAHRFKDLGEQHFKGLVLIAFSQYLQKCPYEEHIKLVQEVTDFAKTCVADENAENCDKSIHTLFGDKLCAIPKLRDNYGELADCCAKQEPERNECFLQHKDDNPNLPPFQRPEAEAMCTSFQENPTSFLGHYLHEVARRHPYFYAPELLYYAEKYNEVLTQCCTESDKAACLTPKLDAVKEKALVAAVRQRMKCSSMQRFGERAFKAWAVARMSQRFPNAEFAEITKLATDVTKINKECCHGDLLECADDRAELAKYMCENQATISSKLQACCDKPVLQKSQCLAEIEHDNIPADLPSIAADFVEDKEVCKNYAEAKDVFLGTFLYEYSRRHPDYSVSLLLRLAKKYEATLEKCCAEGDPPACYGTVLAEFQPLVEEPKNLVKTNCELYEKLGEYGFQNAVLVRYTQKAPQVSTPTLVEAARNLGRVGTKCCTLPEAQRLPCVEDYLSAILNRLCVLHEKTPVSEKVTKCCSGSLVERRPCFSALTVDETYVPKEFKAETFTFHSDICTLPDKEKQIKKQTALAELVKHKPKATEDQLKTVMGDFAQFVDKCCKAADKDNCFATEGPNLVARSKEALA

[13] = system: Liver microsomes; assay: Intrinsic clearance in human liver microsomes; type: ADME, Microsome
[14] = Oral bioavailability in rat at 5 mg/kg; type: ADME, organism-based; details: in vivo
[15] = system: Liver microsomes; assay: Intrinsic clearance in rat liver microsomes; type: ADME, Microsome
[16] = molecular target: T1, Oxytocin receptor; assay: Antagonist activity at human oxytocin receptor assessed as inhibition of oxytocin binding by FLIPR analysis
[17] = Clearance in cynomolgus monkey at 2 mg/kg; type: ADME, organism-based, Macaca fascicularis; parameters: dose 2 mg/kg; details: in vivo
[18] = Oral bioavailability in cynomolgus monkey at 2 mg/kg; type: ADME, organism-based, Macaca fascicularis; details: in vivo
[19] = AUC in cynomolgus monkey at 2 mg/kg, po; type: ADME, organism-based, Macaca fascicularis; parameters: dose 2 mg/kg, route oral; details: plasma

Chain of serum albumin (Homo sapiens, UniProt P02768) (P02768 whole entry): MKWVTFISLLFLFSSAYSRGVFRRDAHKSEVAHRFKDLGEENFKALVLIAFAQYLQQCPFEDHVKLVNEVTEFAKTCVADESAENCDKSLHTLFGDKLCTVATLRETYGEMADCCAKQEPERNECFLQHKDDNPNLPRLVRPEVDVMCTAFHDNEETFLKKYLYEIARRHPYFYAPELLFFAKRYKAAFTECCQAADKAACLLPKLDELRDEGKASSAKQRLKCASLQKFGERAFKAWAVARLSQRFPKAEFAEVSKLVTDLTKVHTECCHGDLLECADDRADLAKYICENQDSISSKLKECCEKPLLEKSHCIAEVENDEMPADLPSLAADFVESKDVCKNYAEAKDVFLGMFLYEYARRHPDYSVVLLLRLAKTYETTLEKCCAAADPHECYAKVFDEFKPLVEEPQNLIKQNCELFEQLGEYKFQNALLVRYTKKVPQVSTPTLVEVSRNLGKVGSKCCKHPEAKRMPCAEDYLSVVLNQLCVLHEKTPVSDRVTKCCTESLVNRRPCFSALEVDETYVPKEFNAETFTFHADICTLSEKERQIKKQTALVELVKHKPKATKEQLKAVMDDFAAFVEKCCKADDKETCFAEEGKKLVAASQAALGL

SMILES | fraction unbound [1] | Ki [2] [nM] | clearance [3] [mL/min/kg] | CLH [4] [mL/min/g] | CLH [5] [mL/min/g] | bioavailability [6] [%] | clearance [7] [mL/min/kg] | logD [8] | AUC [9] [ng·h/mL] | AUC [10] [ng·h/mL] | solubility [11] [µg/mL] | fraction unbound [12] | CLH [13] [mL/min/g] | bioavailability [14] [%] | CLH [15] [mL/min/g] | Ki [16] [nM] | clearance [17] [mL/min/kg] | bioavailability [18] [%] | AUC [19] [ng·h/mL]
Cc1ccc([C@H](C(=O)N(C)C)N2C(=O)[C@@H](C3Cc4ccccc4C3)NC(=O)[C@H]2CC(C)C)cn1 | 0.17 | 1.58 | 18 | 3 | 21 | 26 | 6 | 2.1 | 2680 | 454 | > 236 | 0.14 | 11 | 57 | 3 | – | – | – | –
Cc1ccccc1[C@H](C(=O)NC(C)C)N1C(=O)[C@@H](C2Cc3ccccc3C2)NC(=O)[C@H]1CC(C)C | – | – | – | – | – | – | – | – | – | – | – | – | – | – | – | 7.94 | – | – | –
CC[C@H](C)[C@@H]1C(=O)N[C@H](C2Cc3ccccc3C2)C(=O)N1[C@@H](C(=O)N1CCOCC1)c1coc(C)n1 [RETOSIBAN] | – | – | – | – | 6 | – | – | – | – | – | – | – | 3 | – | – | – | 26 | 10 | 45
CCC(CC)[C@@H]1C(=O)N[C@H](C2Cc3ccccc3C2)C(=O)N1[C@@H](C(=O)NC)c1ccc(C)nc1 | – | 0.1 | 17 | 2 | 8 | 38 | 22 | – | 1470 | 173 | – | – | 4 | 28 | 1 | – | 24 | 4 | 29
